Results as given in BindingDB's records for doi:10.1021/jm00120a002 (Merck Sharp & Dohme Research Laboratories, 1989).

assay: Half-maximal inhibition of [125I]gastrin binding to guinea pig gastric glands

| SMILES | IC50 [µM] |
| --- | --- |
| CN1C(=O)C(NC(=O)c2ccc(Cl)cc2N)N=C(c2ccccc2)c2ccccc21 (centres undefined) [2-Amino-4-chloro-N-(1-methyl-2-oxo-5-phenyl-2,3-dihydro-1H-benzo[e][1,4]diazepin-3-yl)-benzamide.H2O] | 1.9 |
| Cc1ccc(C(=O)NC2N=C(c3ccccc3F)c3ccccc3NC2=O)cc1 (centres undefined) | 5 |
| CN1C(=O)C(NC(=O)c2cc3ccccc3[nH]2)N=C(c2ccccc2F)c2ccccc21 (centres undefined) [1H-Indole-2-carboxylic acid [5-(2-fluoro-phenyl)-1-methyl-2-oxo-2,3-dihydro-1H-benzo[e][1,4]diazepin-3-yl]-amide] | 0.19 |
| CN1C(=O)[C@H](NC(=O)c2ccc(C(F)(F)F)cc2)N=C(c2ccccc2)c2ccccc21 | 4.2 |
| CC(C)(C)c1ccc(C(=O)NC2N=C(c3ccccc3)c3ccccc3NC2=O)cc1 (centres undefined) [4-tert-Butyl-N-(2-oxo-5-phenyl-2,3-dihydro-1H-benzo[e][1,4]diazepin-3-yl)-benzamide: 0.12CHCl3] | 40 |
| CN1C(=O)[C@@H](NC(=O)C(C)(C)C)N=C(c2ccccc2)c2ccccc21 | 13 |
| CC(C)CCC(=O)N[C@H]1N=C(c2ccccc2)c2ccccc2N(C)C1=O | 130 |
| O=C(NC1N=C(c2ccccc2)c2ccccc2NC1=O)c1ccc(Cl)c(Cl)c1 (centres undefined) | 25 |
| O=C(NC1N=C(c2ccccc2F)c2ccccc2NC1=O)c1ccc(Cl)cc1 (centres undefined) | 14 |
| O=C(NC1N=C(c2ccccc2)c2ccccc2NC1=O)c1c[nH]c2ccccc12 (centres undefined) | 18 |
| CN1C(=O)C(N(C)C(=O)c2ccccc2Cl)N=C(c2ccccc2)c2ccccc21 (centres undefined) | > 100 |
| CN1C(=O)C(NC(=O)c2cc3ccccc3n2C)N=C(c2ccccc2F)c2ccccc21 (centres undefined) | 1.6 |
| O=C(NC1N=C(c2ccccc2F)c2ccccc2NC1=O)c1ccccc1Cl (centres undefined) [2-Chloro-N-[5-(2-fluoro-phenyl)-2-oxo-2,3-dihydro-1H-benzo[e][1,4]diazepin-3-yl]-benzamide: 0.1C4H8O2] | 18 |
| O=C(NC1N=C(c2ccccc2F)c2ccccc2NC1=O)c1cc2cc(Cl)ccc2[nH]1 (centres undefined) [5-Chloro-1H-indole-2-carboxylic acid [5-(2-fluoro-phenyl)-2-oxo-2,3-dihydro-1H-benzo[e][1,4]diazepin-3-yl]-amide] | 20 |
| CCCc1ccc(C(=O)NC2N=C(c3ccccc3)c3ccccc3NC2=O)cc1 (centres undefined) | 80 |
| CN1C(=O)C(NC(=O)c2ccccc2Cl)N=C(c2ccccc2)c2ccccc21 (centres undefined) | 30 |
| COc1ccc2[nH]c(C(=O)NC3N=C(c4ccccc4F)c4ccccc4NC3=O)cc2c1 (centres undefined) | > 10 |
| O=C(CCc1c[nH]c2ccccc12)NC1N=C(c2ccccc2)c2ccccc2NC1=O (centres undefined) | 17 |
| CN1C(=O)[C@@H](NC(=O)c2cccc(Br)c2)N=C(c2ccccc2F)c2ccccc21 | 0.75 |
| CN1C(=O)[C@@H](NC(=O)c2ccc(Cl)cc2)N=C(c2ccccc2F)c2ccccc21 | 0.8 |
| O=C(/C=C/c1ccccc1)NC1N=C(c2ccccc2F)c2ccccc2NC1=O (centres undefined) | 3.8 |
| O=C(NC1N=C(c2ccccc2)c2ccccc2NC1=O)C1Cc2ccccc2N1 (centres undefined) | 110 |
| O=C(NC1N=C(c2ccccc2F)c2ccccc2N(C(=O)c2ccc(Cl)cc2)C1=O)c1ccc(Cl)cc1 (centres undefined) | 0.55 |
| CN1C(=O)C(NC(=O)c2ccc(Br)cc2)N=C(c2ccccc2)c2ccccc21 (centres undefined) [4-Bromo-N-(1-methyl-2-oxo-5-phenyl-2,3-dihydro-1H-benzo[e][1,4]diazepin-3-yl)-benzamide:0.05C3H6O] | 1.7 |
| O=C(NC1N=C(c2ccccc2F)c2ccccc2NC1=O)c1ccc(C(F)(F)F)cc1 (centres undefined) | 9.5 |
| CN1C(=O)[C@@H](NC(=O)c2ccccc2I)N=C(c2ccccc2)c2ccccc21 | 38 |
| O=C(NC1N=C(c2ccccc2)c2ccccc2NC1=O)c1cc(Cl)cc(Cl)c1 (centres undefined) | 180 |

| SMILES | IC50 [µM] |
| --- | --- |
| O=C(NC1N=C(c2ccccc2F)c2ccccc2NC1=O)c1cc2cc(F)ccc2[nH]1 (centres undefined) [5-Fluoro-1H-indole-2-carboxylic acid [5-(2-fluoro-phenyl)-2-oxo-2,3-dihydro-1H-benzo[e][1,4]diazepin-3-yl]-amide: 0.23CHCL3] | > 10 |
| O=C(NC1N=C(c2ccccc2F)c2ccccc2NC1=O)c1cc2cc(Br)ccc2[nH]1 (centres undefined) | > 10 |
| O=C(NC1N=C(c2ccccc2F)c2ccccc2NC1=O)c1ccc([N+](=O)[O-])cc1 (centres undefined) | > 10 |
| CCCCCc1ccc(C(=O)NC2N=C(c3ccccc3)c3ccccc3NC2=O)cc1 (centres undefined) | > 100 |
| N#Cc1ccc(C(=O)NC2N=C(c3ccccc3)c3ccccc3NC2=O)cc1 (centres undefined) [4-Cyano-N-(2-oxo-5-phenyl-2,3-dihydro-1H-benzo[e][1,4]diazepin-3-yl)-benzamide] | 22 |
| CN1C(=O)[C@H](NC(=O)C2CCCCC2)N=C(c2ccccc2)c2ccccc21 | 1.5 |
| O=C(NC1N=C(c2ccccc2)c2ccccc2NC1=O)c1cccc(Cl)c1 (centres undefined) [3-Chloro-N-(2-oxo-5-phenyl-2,3-dihydro-1H-benzo[e][1,4]diazepin-3-yl)-benzamide:0.5CHCl3] | 19 |
| CN1C(=O)[C@H](NC(=O)c2ccccc2Cl)N=C(c2ccccc2F)c2ccccc21 | 3.7 |
| CN1C(=O)[C@@H](NC(=O)/C=C/c2ccccc2)N=C(c2ccccc2)c2ccccc21 | 0.18 |
| CC(C)C(=O)N[C@H]1N=C(c2ccccc2)c2ccccc2N(C)C1=O | 73 |
| O=C1Nc2ccccc2C(c2ccccc2F)=NC1NCc1cc2ccccc2[nH]1 (centres undefined) | > 10 |
| CN1C(=O)[C@@H](NC(=O)c2ccccc2Cl)N=C(c2ccccc2)c2ccccc21 | 130 |
| CN1C(=O)[C@H](NC(=O)c2ccccc2Cl)N=C(c2ccccc2)c2ccccc21 | 7.5 |
| O=C1Nc2ccccc2C(c2ccccc2)=NC1NCCc1c[nH]c2ccccc12 (centres undefined) | > 100 |
| O=C(Cc1cccc2sccc12)NC1N=C(c2ccccc2F)c2ccccc2NC1=O (centres undefined) | 3.9 |
| CN1C(=O)[C@H](NC(=O)c2cc3ccccc3[nH]2)N=C(c2ccccc2F)c2ccccc21 | 0.24 |
| CCOC(=O)CN1C(=O)C(NC(=O)c2cc3ccccc3[nH]2)N=C(c2ccccc2F)c2ccccc21 (centres undefined) | 0.12 |
| O=C1Nc2ccccc2C(c2ccccc2F)=NC1NC(=O)C(O)c1ccccc1 (centres undefined) | > 10 |
| O=C(NC1N=C(c2ccccc2)c2ccccc2NC1=O)c1ccccc1Cl (centres undefined) [2-Chloro-N-(2-oxo-5-phenyl-2,3-dihydro-1H-benzo[e][1,4]diazepin-3-yl)-benzamide. 0.02CHCl3] | 52 |
| CN1C(=O)[C@@H](NC(=O)c2ccccc2I)N=C(c2ccccc2F)c2ccccc21 | 11 |
| O=C(NC1N=C(c2ccccc2F)c2ccccc2NC1=O)c1ccsc1 (centres undefined) | > 10 |
| O=C(NC1N=C(c2ccccc2)c2ccccc2NC1=O)c1ccc(Cl)cc1 (centres undefined) | 8.2 |
| O=C(O)CN1C(=O)C(NC(=O)c2ccc(Cl)cc2)N=C(c2ccccc2F)c2ccccc21 (centres undefined) | 8.2 |
| Cn1c(C(=O)NC2N=C(c3ccccc3F)c3ccccc3NC2=O)cc2ccccc21 (centres undefined) | 6.3 |
| CC(C)(C)OC(=O)N[C@H](Cc1c[nH]c2ccccc12)C(=O)NC1N=C(c2ccccc2)c2ccccc2NC1=O (some centres undefined) | > 100 |
| CN1C(=O)C(NC(=O)[C@@H](Cc2ccccc2)NC(=O)OC(C)(C)C)N=C(c2ccccc2)c2ccccc21 (some centres undefined) | 26 |
| O=C(NC1N=C(c2ccccc2F)c2ccccc2NC1=O)c1cc2ccccc2[nH]1 (centres undefined) | 4.6 |

| SMILES | IC50 [µM] |
| --- | --- |
| O=C(NC1N=C(c2ccccc2)c2ccccc2NC1=O)c1cccc2ccccc12 (centres undefined) | 29 |
| CN1C(=O)C(NC(=O)C(Cc2ccccc2)NC(=O)OC(C)(C)C)N=C(c2ccccc2F)c2ccccc21 (centres undefined) | 2.9 |
| CN1C(=O)CN=C(c2ccccc2)c2ccccc21 | 94 |
| O=C(NC1N=C(c2ccccc2)c2ccccc2NC1=O)c1ccc(C(F)(F)F)cc1 (centres undefined) | 36 |
| O=C(NC1N=C(c2ccccc2)c2ccccc2NC1=O)c1ccc(F)cc1 (centres undefined) | 9.4 |
| O=C(O)CN1C(=O)C(NC(=O)c2cc3ccccc3[nH]2)N=C(c2ccccc2)c2ccccc21 (centres undefined) [CCK antagonist synthetic 20] | 0.65 |
| O=C(NC1N=C(c2ccccc2F)c2ccccc2NC1=O)c1ncc2ccccc2n1 (centres undefined) | > 10 |
| CN1C(=O)C(NC(=O)[C@H](Cc2ccccc2)NC(=O)OC(C)(C)C)N=C(c2ccccc2F)c2ccccc21 (some centres undefined) | 1.2 |
| CN1C(=O)[C@@H](NC(=O)c2ccc(C#N)cc2)N=C(c2ccccc2F)c2ccccc21 | 9 |
| CN1C(=O)[C@@H](NC(=O)c2ccc(C(F)(F)F)cc2)N=C(c2ccccc2F)c2ccccc21 | 0.44 |
| CN(C(=O)c1cc2ccccc2[nH]1)C1N=C(c2ccccc2)c2ccccc2NC1=O (centres undefined) | > 10 |
| CCOC(=O)CN1C(=O)C(NC(=O)c2ccccc2Cl)N=C(c2ccccc2F)c2ccccc21 (centres undefined) [[3-(2-Chloro-benzoylamino)-5-(2-fluoro-phenyl)-2-oxo-2,3-dihydro-benzo[e][1,4]diazepin-1-yl]-acetic acid ethyl ester] | 1.3 |
| O=C(NC1N=C(c2ccccc2)c2ccccc2NC1=O)c1ccc(O)cc1 (centres undefined) | 31 |
| CN1C(=O)[C@@H](NC(=O)c2ccc(I)cc2)N=C(c2ccccc2F)c2ccccc21 | 0.53 |
| O=C(NC1N=C(c2ccccc2)c2ccccc2NC1=O)c1cc2ccccc2[nH]1 (centres undefined) | 4 |
| CN1C(=O)[C@H](NC(=O)[C@H](N)Cc2ccccc2)N=C(c2ccccc2)c2ccccc21 [(R)-2-amino-N-((R)-1-methyl-2-oxo-5-phenyl-2,3-dihydro-1H-benzo[e][1,4]diazepin-3-yl)-3-phenylpropanamide] | 55 |
| CN1C(=O)[C@H](NC(=O)c2ccc(Cl)cc2)N=C(c2ccccc2F)c2ccccc21 | 5.2 |
| O=C(O)CN1C(=O)C(NC(=O)c2cc3ccccc3[nH]2)N=C(c2ccccc2F)c2ccccc21 (centres undefined) | 0.39 |
| O=C(NC1N=C(c2ccccc2F)c2ccccc2NC1=O)c1cc2ccccc2o1 (centres undefined) | 11 |
| CCCCCc1ccc(C(=O)N[C@H]2N=C(c3ccccc3F)c3ccccc3N(C)C2=O)cc1 | 60 |
| O=C(NC1N=C(c2ccccc2F)c2ccccc2NC1=O)c1ccc[nH]1 (centres undefined) | 25 |
| O=C(NC1N=C(c2ccccc2)c2ccccc2NC1=O)c1ccc2ccccc2c1 (centres undefined) | 14 |
| O=C(NC1N=C(c2ccccc2F)c2ccccc2NC1=O)c1ccccc1 (centres undefined) | 28 |
| O=C(NC1N=C(c2ccccc2F)c2ccccc2NC1=O)c1cc2cc(O)ccc2[nH]1 (centres undefined) [5-Hydroxy-1H-indole-2-carboxylic acid [5-(2-fluoro-phenyl)-2-oxo-2,3-dihydro-1H-benzo[e][1,4]diazepin-3-yl]-amide] | 29 |
| CCOC(=O)CN1C(=O)C(NC=O)N=C(c2ccccc2)c2ccccc21 (centres undefined) | 25 |
